Data from patent US8574563B2 (Bristol-Myers Squibb Company, priority 2006, dated 2013).

What follows are compounds tested on HCV 1b-377-neo replicon cells (assay: HCV replicon assay, HCV 1b-377-neo replicon cells (1b FRET)). Conditions: HCV 1b-377-neo replicon cells; HCV 1b genotype; read-out: EC50 range against HCV 1b (Table 2, Range).
Format: cell-based, Hepatitis C virus genotype 1b
Outline: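 FRET-based replicon assay in HCV 1b-377-neo cells, including a comparison line carrying the NS5A Y2065H mutation that confers resistance to a reference compound.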
For `COC(=O)N[C@@H](C(=O)N1CCC[C@H]1c1ncc(-c2ccc(-c3ccc(-c4cnc([C@@H]5CCCN5C(=O)[C@@H]5C[C@H](F)CN5)[nH]4)cc3)cc2)[nH]1)c1ccccc1` [Example 79, methyl ((1R)-2-((2)S-2-(5-(4′-(2-((2S)-1-((4S)-4-fluoro-L-prolyl)-2-pyrrolidinyl)-1H-imidazol-5-yl)-4-biphenylyl)-1H-imidazol-2-yl)-1-pyrrolidinyl)-2-oxo-1-phenylethyl)carbamate], the EC50 was 0.001 to 0.999 nM. Compound `CCC[C@H](NC(=O)OC)C(=O)N1CCC[C@H]1c1ncc(-c2ccc(-c3ccc(-c4cnc([C@@H]5CCCN5C(=O)[C@@H](NC(=O)OC)C(C)C)[nH]4)cc3)cc2)[nH]1` [Example M75, methyl ((1S)-1-(((2S)-2-(5-(4′-(2-((2S)-1-((2S)-2-((methoxycarbonyl)amino)-3-methylbutanoyl)-2-pyrrolidinyl)-1H-imidazol-5-yl)-4-biphenylyl)-1H-imidazol-2-yl)-1-pyrrolidinyl)carbonyl)butyl) carbamate] has an EC50 of 1 to 99 nM.

Same assay, conditions: Hepatitis C virus, HCV 1b-377-neo replicon cells; HCV 1b genotype; read-out: EC50 range against HCV 1b (Table 2, Range)
Compound `COC(=O)N[C@@H](C(=O)N1CCC[C@H]1c1ncc(-c2ccc(-c3ccc(-c4cnc([C@@H]5CCCN5C(=O)C5CCN(C(=O)OC(C)(C)C)CC5)[nH]4)cc3)cc2)[nH]1)c1ccccc1` [Example 84-36, tert-butyl 4-(((2S)-2-(5-(4′-(2-((2S)-1-((2R)-2-((methoxycarbonyl)amino)-2-phenylacetyl)-2-pyrrolidinyl)-1H-imidazol-5-yl)-4-biphenylyl)-1H-imidazol-2-yl)-1-pyrrolidinyl)carbonyl)-1-piperidinecarboxylate] has an EC50 of 0.001 to 0.999 nM. `CN1CCN(C(C(=O)N2CCC[C@H]2c2ncc(-c3ccc(-c4ccc(-c5cnc([C@@H]6CCCN6C(=O)[C@@H]6CCCO6)[nH]5)cc4)cc3)[nH]2)c2ccccc2)CC1` (stereo partly drawn) [Example 104, 1-methyl-4-(2-oxo-1-phenyl-2-((2S)-2-(5-(4′-(2-((2S)-1-((2S)-tetrahydro-2-furanylcarbonyl)-2-pyrrolidinyl)-1H-imidazol-5-yl)-4-biphenylyl)-1H-imidazol-2-yl)-1-pyrrolidinyl)ethyl)piperazine] gave an EC50 of 0.001 to 0.999 nM. In the case of `CN1CCC[C@H]1C(=O)N[C@@H](C(=O)N1CCC[C@H]1c1ncc(-c2ccc(-c3ccc(-c4c[nH]c([C@@H]5CCCN5C(=O)[C@H]5CCCO5)n4)cc3)cc2)[nH]1)c1ccccc1` [Example 120-6, 1-methyl-N-((1R)-2-oxo-1-phenyl-2-((2S)-2-(5-(4′-(2-((2S)-1-((2R)-tetrahydro-2-furanylcarbonyl)-2-pyrrolidinyl)-1H-imidazol-4-yl)-4-biphenylyl)-1H-imidazol-2-yl)-1-pyrrolidinyl)ethyl)-L-prolinamide], the EC50 is reported as 1 to 99 nM. `COC(=O)N[C@H](C(=O)N1CCC[C@H]1c1nc(-c2ccc(-c3ccc(-c4c[nH]c([C@@H]5CCCN5C(=O)[C@H](C)NC5CCOCC5)n4)cc3)cc2)c[nH]1)C(C)C` [Example F48, methyl ((1S)-2-methyl-1-(((2S)-2-(4-(4′-(2-((2S)-1-(N-(tetrahydro-2H-pyran-4-yl)-L-alanyl)-2-pyrrolidinyl)-1H-imidazol-4-yl)-4-biphenylyl)-1H-imidazol-2-yl)-1-pyrrolidinyl)carbonyl)propyl)carbamate] gave an EC50 of 0.001 to 0.999 nM. `COC(=O)N[C@@H](C(=O)N1CCC[C@H]1c1ncc(-c2ccc(-c3ccc(-c4cnc([C@@H]5CCCN5C(=O)[C@@H]5CC(F)(F)CN5)[nH]4)cc3)cc2)[nH]1)c1ccccc1` [Example 81, methyl ((1R)-2-((2S)-2-(5-(4′(2-((2S)-1-(4,4-difluoro-L-prolyl)-2-pyrrolidinyl)-1H-imidazol-5-yl)-4-biphenylyl)-1H-imidazol-2-yl)-1-pyrrolidinyl)-2-oxo-1-phenylethyl)carbamate] showed an EC50 of 0.001 to 0.999 nM. Work on `COC(=O)N[C@@H](C(=O)N1CCC[C@H]1c1ncc(-c2ccc(-c3ccc(-c4cnc([C@@H]5CCCN5C(=O)[C@H](OC)c5ccccc5)[nH]4)cc3)cc2)[nH]1)c1ccccc1Cl` [Example 107-43, methyl ((1R)-1-(2-chlorophenyl)-2-((2S)-2-(5-(4′-(2-((2S)-1-((2R)-2-methoxy-2-phenylacetyl)-2-pyrrolidinyl)-1H-imidazol-5-yl)-4-biphenylyl)-1H-imidazol-2-yl)-1-pyrrolidinyl)-2-oxoethyl) carbamate] yielded an EC50 of 0.001 to 0.999 nM. With `COC(=O)N[C@H](C(=O)N1CC[C@H](O)[C@H]1c1nc(-c2ccc(-c3ccc(-c4c[nH]c([C@@H]5CCCN5C(=O)[C@@H](NC(=O)OC)C(C)C)n4)cc3)cc2)c[nH]1)C(C)C` [OL-19, methyl ((1S)-1-(((2R,3S)-3-hydroxy-2-(4-(4′-(2-((2S)-1-((2S)-2-((methoxycarbonyl)amino)-3-methylbutanoyl)-2-pyrrolidinyl)-1H-imidazol-4-yl)-4-biphenylyl)-1H-imidazol-2-yl)-1-pyrrolidinyl)carbonyl)-2-methylpropyl)carbamate] the EC50 was 0.001 to 0.999 nM. For `COC(=O)N[C@@H]1CC[C@H](C(=O)N2CCC[C@H]2c2ncc(-c3ccc(-c4ccc(-c5cnc([C@@H]6CCCN6C(=O)[C@@H](NC(=O)OC)C(C)C)[nH]5)cc4)cc3)[nH]2)C1` [cj-62, methyl ((1S)-1-(((2S)-2-(5-(4′-(2-((2S)-1-(((1S,3R)-3-((methoxycarbonyl)amino)cyclopentyl)carbonyl)-2-pyrrolidinyl)-1H-imidazol-5-yl)-4-biphenylyl)-1H-imidazol-2-yl)-1-pyrrolidinyl)carbonyl)-2-methylpropyl)carbamate], the EC50 was 0.001 to 0.999 nM. `COC(=O)N[C@H](C(=O)N1CCC[C@H]1c1ncc(-c2ccc(-c3ccc(-c4cnc([C@@H]5CCCN5C(=O)[C@H]5CC[C@@H](NC(=O)OC)CC5)[nH]4)cc3)cc2)[nH]1)C(C)C` [cj-69, methyl ((1S)-1-(((2S)-2-(5-(4′-(2-((2S)-1-((cis-4-((methoxycarbonyl)amino)cyclohexyl)carbonyl)-2-pyrrolidinyl)-1H-imidazol-5-yl)-4-biphenylyl)-1H-imidazol-2-yl)-1-pyrrolidinyl)carbonyl)-2-methylpropyl)carbamate] showed an EC50 of 0.001 to 0.999 nM. Compound `CCN(CC)[C@@H](C(=O)N1CCC[C@H]1c1ncc(-c2ccc(-c3ccc(-c4cnc([C@@H]5CCCN5C(=O)[C@@H](c5ccccc5)N5CCCC5)[nH]4)cc3)cc2)[nH]1)c1ccccc1` [Example 99, (1R)-N,N-diethyl-2-oxo-1-phenyl-2-((2S)-2-(5-(4′-(2-((2S)-1-((2R)-2-phenyl-2-(1-pyrrolidinyl)acetyl)-2-pyrrolidinyl)-1H-imidazol-5-yl)-4-biphenylyl)-1H-imidazol-2-yl)-1-pyrrolidinyl)ethanamine] has an EC50 of 0.001 to 0.999 nM. `CCN(CC)[C@@H](C(=O)N1CCC[C@H]1c1ncc(-c2ccc(-c3ccc(-c4cnc([C@@H]5CCCN5C(=O)c5cccnc5)[nH]4)cc3)cc2)[nH]1)c1ccccc1` [Example M38, (1R)-N,N-diethyl-2-oxo-1-phenyl-2-((2S)-2-(5-(4′-(2-((2S)-1-(3-pyridinylcarbonyl)-2-pyrrolidinyl)-1H-imidazol-5-yl)-4-biphenylyl)-1H-imidazol-2-yl)-1-pyrrolidinyl)ethanamine] gave an EC50 of 1 to 99 nM. `CN(C)[C@@H](C(=O)N1CCC[C@H]1c1ncc(-c2ccc(-c3ccc(-c4cnc([C@@H]5CCCN5C(=O)Cc5ccc(F)cc5)[nH]4)cc3)cc2)[nH]1)c1ccccc1` [Example 94-53, (1R)-2-((2S)-2-(5-(4′-(2-((2S)-1-((4-fluorophenyl)acetyl)-2-pyrrolidinyl)-1H-imidazol-5-yl)-4-biphenylyl)-1H-imidazol-2-yl)-1-pyrrolidinyl)-N,N-dimethyl-2-oxo-1-phenylethanamine] showed an EC50 of 0.001 to 0.999 nM. `COC(=O)N[C@@H](C(=O)N1CCC[C@H]1c1ncc(-c2ccc(-c3ccc(-c4cnc([C@@H]5CCCN5C(=O)[C@@H]5Cc6ccc(O)cc6CN5)[nH]4)cc3)cc2)[nH]1)c1ccccc1` [Example 84-20, methyl ((1R)-2-((2S)-2-(5-(4′-(2-((2S)-1-(((3S)-7-hydroxy-1,2,3,4-tetrahydro-3-isoquinolinyl)carbonyl)-2-pyrrolidinyl)-1H-imidazol-5-yl)-4-biphenylyl)-1H-imidazol-2-yl)-1-pyrrolidinyl)-2-oxo-1-phenylethyl)carbamate] showed an EC50 of 1 to 99 nM. Compound `COC(=O)N[C@@H](C(=O)N[C@@H](C)c1ncc(-c2ccc(-c3ncc(-c4cnc([C@@H]5CCCN5C(=O)[C@H](NC(=O)OC)c5ccccc5)[nH]4)cn3)cc2)[nH]1)c1ccccc1` [Example 152j-15, methyl ((1R)-2-((2S)-2-(5-(2-(4-(2-((1S)-1-(((2R)-2-((methoxycarbonyl)amino)-2-phenylacetyl)amino)ethyl)-1H-imidazol-5-yl)phenyl)-5-pyrimidinyl)-1H-imidazol-2-yl)-1-pyrrolidinyl)-2-oxo-1-phenylethyl)carbamate] has an EC50 of 0.001 to 0.999 nM. With `COC(=O)N[C@@H](C)CC(=O)N1CCC[C@H]1c1ncc(-c2ccc(-c3ccc(-c4cnc([C@@H]5CCCN5C(=O)C[C@H](C)NC(=O)OC)[nH]4)cc3)cc2)[nH]1` [cj-126, dimethyl (4,4′-biphenyldiylbis(1H-imidazole-5,2-diyl(2S)-2,1-pyrrolidinediyl((2S)-4-oxo-4,2-butanediyl)))biscarbamate] the EC50 was 0.001 to 0.999 nM. In the case of `COC(=O)N[C@@H](C(=O)N1CCC[C@H]1c1ncc(-c2ccc(-c3ccc(-c4cnc([C@@H]5CCCN5C(=O)C5(O)CC5)[nH]4)cc3)cc2)[nH]1)c1ccccc1` [Example 60, methyl ((1R)-2-((2S)-2-(5-(4′-(2-((2S)-1-((1-hydroxycyclopropyl)carbonyl)-2-pyrrolidinyl)-1H-imidazol-5-yl)-4-biphenylyl)-1H-imidazol-2-yl)-1-pyrrolidinyl)-2-oxo-1-phenylethyl)carbamate], the EC50 is reported as 0.001 to 0.999 nM. Compound `O=C(Nc1cccnc1)N[C@@H](C(=O)N1CCC[C@H]1c1ncc(-c2ccc(-c3ccc(-c4cnc([C@@H]5CCCN5C(=O)[C@H](NC(=O)Nc5cccnc5)c5ccccc5)[nH]4)cc3)cc2)[nH]1)c1ccccc1` [Example 25-8, N,N″-(4,4′-biphenyldiylbis(1H-imidazole-5,2-diyl(2S)-2,1-pyrrolidinediyl((1R)-2-oxo-1-phenyl-2,1-ethanediyl)))bis(3-(3-pyridinyl)urea)] has an EC50 of 0.001 to 0.999 nM.
